Laboratory results reported in the supplement of paper PMC11208160.

Test: recombinant UMI read abundance after kanamycin selection (control-corrected) (log10(CPM+1)); higher = more efficient recombination; extreme values may be limits of the assay; sequences stand for … in AGTGCAGAGAAAATCGGCCAGTTTTCTCTGCCTGCAGTCCGCATGCCGTGGGACCCCTTGGGTTCTAACCTGTTGCCTAGATTTATGCAGCGGACTGCCTTTCTCCCAAAGTGATAAACCGG…AGGTTGGTTTCACT; site = the 11-nt donor
Method in brief: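 Under IPTG (0.07 mM) plus kanamycin, or without selection, Escherichia coli carrying a UMI-tagged donor and donor-binding-loop pair library and a target plasmid for the IS621 bridge recombinase were plated in two replicates. Recombinant UMIs were PCR-amplified across the donor–target junction and sequenced. Counts were converted to CPM, averaged over replicates, scaled by control-derived factors and reported as log10(CPM+1).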
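Further: IS621 bridge recombinase in Escherichia coli cells against a fixed T5 target plasmid.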

Row | Sequence | recombinant UMI read abundance (log10)
1 | CATGCAGCATGGACCGGTTTTCCCGGTAATCCGTATTTGCT (site CACGCAGCTAG) | 1.29
2 | CATGCAGCATGGACCGGTTTTCCCGGTAATCCGTATTTGCT (site CAGGCAGCTAG) | 0.00853
3 | CATGCAGCATGGACCGGTTTTCCCGGTAATCCGTATTTGCT (site CATGCAGCTAG) | 1.97
4 | CATGCATCATGGACCGGTTTTCCCGGTAATCCGTATTTGCT (site CATGCATCTAG) | 1.49
5 | CATGGATCATGGACCGGTTTTCCCGGTAATCCGTATTTGGA (site CATGGATCTTC) | 2.32
6 | CATGTGACATGGACCGGTTTTCCCGGTAATCCGTATTTGAT (site CATGTGACTAT) | 2.03
7 | CATTATCCATGGACCGGTTTTCCCGGTAATCCGTATTTGCT (site AATTATCCTAG) | 0.352
8 | CATTATCCATGGACCGGTTTTCCCGGTAATCCGTATTTGCT (site CATTATCCTAG) | 1.59
9 | CATTATCCATGGACCGGTTTTCCCGGTAATCCGTATTTGCT (site GATTATCCTAG) | 0
10 | CATTATCCATGGACCGGTTTTCCCGGTAATCCGTATTTGCT (site TATTATCCTAG) | 0
11 | CATTCGCCATGGACCGGTTTTCCCGGTAATCCGTATTTGAA (site CATTCGCCTTT) | 0.0116
12 | CATTCGTCATGGACCGGTTTTCCCGGTAATCCGTATTTGGC (site CATTCGTCTGC) | 0.595
13 | CATTGAACATGGACCGGTTTTCCCGGTAATCCGTATTTGCC (site CATTGAACTGG) | 0
14 | CATTGGACATGGACCGGTTTTCCCGGTAATCCGTATTTGAC (site AATTGGACTGT) | 0.565
15 | CATTGGACATGGACCGGTTTTCCCGGTAATCCGTATTTGAC (site CATTGGACTGT) | 1.96
16 | CATTGGACATGGACCGGTTTTCCCGGTAATCCGTATTTGAC (site GATTGGACTGT) | 0
17 | CATTGGACATGGACCGGTTTTCCCGGTAATCCGTATTTGAC (site TATTGGACTGT) | 0
18 | CCAAAACCATGGACCGGTTTTCCCGGTAATCCGTATTTGAG (site CCAAAACCTCT) | 0
19 | CCAACTTCATGGACCGGTTTTCCCGGTAATCCGTATTTGTA (site CCAACTTCTTA) | 0.301
20 | CCAAGCGCATGGACCGGTTTTCCCGGTAATCCGTATTTGTA (site CCAAGCGCTTA) | 1.3
21 | CCAATCACATGGACCGGTTTTCCCGGTAATCCGTATTTGTT (site CCAATCACTAA) | 0.84
22 | CCACGAACATGGACCGGTTTTCCCGGTAATCCGTATTTGTC (site ACACGAACTGA) | 0
23 | CCACGAACATGGACCGGTTTTCCCGGTAATCCGTATTTGTC (site CCACGAACTGA) | 0.774
24 | CCACGAACATGGACCGGTTTTCCCGGTAATCCGTATTTGTC (site GCACGAACTGA) | 0
25 | CCACGAACATGGACCGGTTTTCCCGGTAATCCGTATTTGTC (site TCACGAACTGA) | 0

Row | Sequence | recombinant UMI read abundance (log10)
26 | CCAGCAGCATGGACCGGTTTTCCCGGTAATCCGTATTTGTC (site CCAGCAGCTGA) | 0.4
27 | CCAGCATCATGGACCGGTTTTCCCGGTAATCCGTATTTGCT (site CCAGCATCTAG) | 0.0975
28 | CCAGCATCATGGACCGGTTTTCCCGGTAATCCGTATTTGCT (site CGATCATCTAG) | 0
29 | CCAGCTGCATGGACCGGTTTTCCCGGTAATCCGTATTTGCC (site CCAGCTGCTGG) | 1.26
30 | CCAGGACCATGGACCGGTTTTCCCGGTAATCCGTATTTGGG (site CAAGGACCTCC) | 0.0304
31 | CCAGGACCATGGACCGGTTTTCCCGGTAATCCGTATTTGGG (site CCAGGACCTCC) | 0.00761
32 | CCAGGACCATGGACCGGTTTTCCCGGTAATCCGTATTTGGG (site CGAGGACCTCC) | 0
33 | CCAGGACCATGGACCGGTTTTCCCGGTAATCCGTATTTGGG (site CTAGGACCTCC) | 0.00678
34 | CCAGGTCCATGGACCGGTTTTCCCGGTAATCCGTATTTGCA (site CCAGGTCCTTG) | 0.421
35 | CCAGGTCCATGGACCGGTTTTCCCGGTAATCCGTATTTGCA (site CCCGGTCCTTG) | 0
36 | CCAGGTCCATGGACCGGTTTTCCCGGTAATCCGTATTTGCA (site CCGGGTCCTTG) | 0
37 | CCAGGTCCATGGACCGGTTTTCCCGGTAATCCGTATTTGCA (site CCTGGTCCTTG) | 0
38 | CCAGGTGCATGGACCGGTTTTCCCGGTAATCCGTATTTGAG (site CCAGGTGCTAT) | 0.721
39 | CCAGGTGCATGGACCGGTTTTCCCGGTAATCCGTATTTGAG (site CCAGGTGCTCT) | 0.843
40 | CCAGGTGCATGGACCGGTTTTCCCGGTAATCCGTATTTGAG (site CCAGGTGCTGT) | 0
41 | CCAGGTGCATGGACCGGTTTTCCCGGTAATCCGTATTTGAG (site CCAGGTGCTTT) | 0.424
42 | CCAGGTTCATGGACCGGTTTTCCCGGTAATCCGTATTTGAT (site CCAGGTACTAT) | 0.00235
43 | CCAGGTTCATGGACCGGTTTTCCCGGTAATCCGTATTTGAT (site CCAGGTCCTAT) | 0.00776
44 | CCAGGTTCATGGACCGGTTTTCCCGGTAATCCGTATTTGAT (site CCAGGTGCTAT) | 0
45 | CCAGGTTCATGGACCGGTTTTCCCGGTAATCCGTATTTGAT (site CCAGGTTCTAT) | 0.602
46 | CCAGGTTCATGGACCGGTTTTCCCGGTAATCCGTATTTGTC (site CCAGGTTCTGA) | 2.24
47 | CCAGTCACATGGACCGGTTTTCCCGGTAATCCGTATTTGGG (site CAAGTCACTCC) | 0.0155
48 | CCAGTCACATGGACCGGTTTTCCCGGTAATCCGTATTTGGG (site CCAGTCACTCC) | 0.026
49 | CCAGTCACATGGACCGGTTTTCCCGGTAATCCGTATTTGGG (site CGAGTCACTCC) | 0.00845
50 | CCAGTCACATGGACCGGTTTTCCCGGTAATCCGTATTTGGG (site CTAGTCACTCC) | 0.0251

Row | Sequence | recombinant UMI read abundance (log10)
51 | CCAGTTGCATGGACCGGTTTTCCCGGTAATCCGTATTTGAT (site CCAGATGCTAT) | 0.00647
52 | CCAGTTGCATGGACCGGTTTTCCCGGTAATCCGTATTTGAT (site CCAGCTGCTAT) | 0.249
53 | CCAGTTGCATGGACCGGTTTTCCCGGTAATCCGTATTTGAT (site CCAGGTGCTAT) | 0.00995
54 | CCAGTTGCATGGACCGGTTTTCCCGGTAATCCGTATTTGAT (site CCAGTTGCTAT) | 1.42
55 | CCATAAACATGGACCGGTTTTCCCGGTAATCCGTATTTGCT (site CCATAAACTAG) | 1.06
56 | CCATACCCATGGACCGGTTTTCCCGGTAATCCGTATTTGCG (site CCATACCCTCG) | 0.287
57 | CCATACCCATGGACCGGTTTTCCCGGTAATCCGTATTTGTG (site CCATACCCTCA) | 0.00448
58 | CCATCGACATGGACCGGTTTTCCCGGTAATCCGTATTTGTT (site CAATCGACTAA) | 0.00346
59 | CCATCGACATGGACCGGTTTTCCCGGTAATCCGTATTTGTT (site CCATCGACTAA) | 0.266
60 | CCATCGACATGGACCGGTTTTCCCGGTAATCCGTATTTGTT (site CGATCGACTAA) | 0
61 | CCATCGACATGGACCGGTTTTCCCGGTAATCCGTATTTGTT (site CTATCGACTAA) | 0.0452
62 | CCATGAGCATGGACCGGTTTTCCCGGTAATCCGTATTTGAG (site CCATGAGCTCT) | 0.662
63 | CCATGATCATGGACCGGTTTTCCCGGTAATCCGTATTTGAA (site CCATGATCTTT) | 1.02
64 | CCATTATCATGGACCGGTTTTCCCGGTAATCCGTATTTGCT (site CCATTATCTAG) | 1.49
65 | CCATTATCATGGACCGGTTTTCCCGGTAATCCGTATTTGCT (site CGATCATCTAG) | 0
66 | CCATTCTCATGGACCGGTTTTCCCGGTAATCCGTATTTGGG (site CCATTCTCTCC) | 0
67 | CCATTCTCATGGACCGGTTTTCCCGGTAATCCGTATTTGGG (site CCCTTCTCTCC) | 0.00367
68 | CCATTCTCATGGACCGGTTTTCCCGGTAATCCGTATTTGGG (site CCGTTCTCTCC) | 0.00306
69 | CCATTCTCATGGACCGGTTTTCCCGGTAATCCGTATTTGGG (site CCTTTCTCTCC) | 0.0196
70 | CCATTTACATGGACCGGTTTTCCCGGTAATCCGTATTTGCT (site CCATTTACTAG) | 0.933
71 | CCATTTACATGGACCGGTTTTCCCGGTAATCCGTATTTGCT (site CCCTTTACTAG) | 0
72 | CCATTTACATGGACCGGTTTTCCCGGTAATCCGTATTTGCT (site CCGTTTACTAG) | 0
73 | CCATTTACATGGACCGGTTTTCCCGGTAATCCGTATTTGCT (site CCTTTTACTAG) | 0.00937
74 | CCCAACCCATGGACCGGTTTTCCCGGTAATCCGTATTTGTG (site CCCAACCCTCA) | 0.0205
75 | CCCACCGCATGGACCGGTTTTCCCGGTAATCCGTATTTGCC (site CCCACCGCTGG) | 0.815
